One assay has as its system DLD-1 BRCA2−/− cells. As to the kind of experiment: Homologous recombination synthetic lethal inhibition of proliferation, DLD-1 BRCA2-/- (Cell Titre Glo 3D). The settings on record: for IC50: Homo sapiens. It counts as cell-based. Summed up: (§1)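 Proliferation of HR-deficient DLD-1 BRCA2−/− versus isogenic wild-type DLD-1 was measured by ATP luminescence (CellTiter-Glo 3D). Compound exposure lasted 12 or 7 days, respectively, with a fresh dose on day 6. IC50 was the concentration halving maximal signal.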

The next assay relates to DLD-1 cells. Kind of assay: Inhibition of proliferation, DLD-1 BRCA2 wt control (Cell Titre Glo 3D). The format is cell-based. The settings on record: for IC50: Homo sapiens. The gist of the method:
as §1

Setting [1] is: DLD-1, 288 h, DLD-1 BRCA2−/− cells, 12 days, read-out: POLQ PD Prolif Lumin BRCA2 −/− mean pIC50 (converted).
Where [2] appears, read: DLD-1, 168 h, DLD-1 BRCA2 wt cells, 7 days, read-out: POLQ PD Prolif Lumin DLD1 mean pIC50 (converted).
Setting [3] is: DLD-1, first proliferation column (c5), DLD-1 BRCA2-/-, read-out: POLQ PD Prolif Lumin (converted).
[4] abbreviates: DLD-1, second proliferation column (c6), DLD-1 BRCA2 wt control, read-out: POLQ PD Prolif Lumin (converted).
[5] abbreviates: DLD-1, first proliferation column (c5), taken as DLD-1 BRCA2-/-, read-out: POLQ PD Prolif Lumin (converted).
[6] abbreviates: DLD-1, second proliferation column (c6), taken as DLD-1 BRCA2 wt, read-out: POLQ PD Prolif Lumin (converted).

Read-outs that look alike come from different tables or passages of the source.

Regarding `CC1(Oc2ncnc3c2nc(-c2ccc(OCCN4CCNCC4)cc2Cl)n3Cc2cccc(Cl)c2)CC1` [Example J13, 8-(2-chloro-4-(2-(piperazin-1-yl)ethoxy)phenyl)-9-(3-chlorobenzyl)-6-(1-methylcyclopropoxy)-9H-purine], the IC50 is 50.1 nM with DLD-1 BRCA2−/− cells (setting [1]) and 3160 nM with DLD-1 cells (setting [2]).

As for `CCc1ccnc(Cn2c(-c3ccc(OCCN4CCNCC4)cc3Cl)nc3c(OC4(C)CC4)ncnc32)c1` [Example S4, 8-(2-chloro-4-(2-(piperazin-1-yl)ethoxy)phenyl)-9-((4-ethylpyridin-2-yl)methyl)-6-(1-methylcyclopropoxy)-9H-purine], the IC50 in the assay on DLD-1 BRCA2−/− cells (setting [1]) was 794 nM; with DLD-1 cells (setting [2]), greater than 10000 nM.

As for `CC1(Oc2ncnc3c2nc(-c2ccc(OCCN4CCC[C@@H](O)C4)cc2Cl)n3Cc2ccccc2)CC1` [Example R7, (R)-1-(2-(4-(9-benzyl-6-(1-methylcyclopropoxy)-9H-purin-8-yl)-3-chlorophenoxy)ethyl)piperidin-3-ol], the values for the IC50 with DLD-1 BRCA2−/− cells (setting [1]) and in the assay with DLD-1 cells (setting [2]) were 63.1 nM and 3160 nM, respectively.

As for `CC1(Oc2ncnc3c2nc(-c2ccc(OCCCN4CC[C@@H](O)C4)cc2Cl)n3Cc2cc(C(F)F)ccn2)CC1` [Example T568, (R)-1-(3-(3-chloro-4-(9-((4-(difluoromethyl)pyridin-2-yl)methyl)-6-(1-methylcyclopropoxy)-9H-purin-8-yl)phenoxy)propyl)pyrrolidin-3-ol], the IC50 with DLD-1 BRCA2−/− cells (setting [3]) was 794 nM; with DLD-1 cells (setting [4]), greater than 10000 nM.

`COc1ccnc(Cn2c(-c3ccc(OCCN4CCNCC4)cc3Cl)nc3c(OC4(C)CC4)ncnc32)c1` [Example L5, 8-(2-chloro-4-(2-(piperazin-1-yl)ethoxy)phenyl)-9-((4-methoxypyridin-2-yl)methyl)-6-(1-methylcyclopropoxy)-9H-purine]: the IC50 in the assay with DLD-1 BRCA2−/− cells (setting [1]) is 1580 nM; in the assay with DLD-1 cells (setting [2]) it was greater than 10000 nM.

For the molecule `CC1(Oc2nccc3c2nc(-c2ccc(OCCN4CCNCC4)cc2Cl)n3Cc2cc(Cl)ccn2)CC1` [Example 16, 2-(2-chloro-4-(2-(piperazin-1-yl)ethoxy)phenyl)-1-((4-chloropyridin-2-yl)methyl)-4-(1-methylcyclopropoxy)-1H-imidazo[4,5-c]pyridine], the IC50 was 398 nM in the assay with DLD-1 BRCA2−/− cells (setting [1]) and greater than 10000 nM in the assay with DLD-1 cells (setting [2]).

As to `CC(CCOc1ccc(-c2nc3c(OC(C)(C)C(F)(F)F)ncnc3n2Cc2cccc(Cl)c2)c(Cl)c1)C(=O)O` (racemic) [Example T274, 4-(3-chloro-4-(9-(3-chlorobenzyl)-6-((1,1,1-trifluoro-2-methylpropan-2-yl)oxy)-9H-purin-8-yl)phenoxy)-2-methylbutanoic acid], the IC50 with DLD-1 BRCA2−/− cells (DLD-1, DLD-1 BRCA2-/- proliferation, column head only partly shown, read-out: POLQ PD Prolif Lumin (converted)) was 316 nM; with DLD-1 cells (DLD-1, DLD-1 BRCA2 wt control proliferation, column head only partly shown, read-out: POLQ PD Prolif Lumin (converted)), greater than 10000 nM.

Consider `Cc1ccnc(Cn2c(-c3ccc(CC(=O)NC4CC4)cc3Cl)nc3c(OC4(C)CC4)ncnc32)c1` [Example T310, 2-(3-chloro-4-(6-(1-methylcyclopropoxy)-9-((4-methylpyridin-2-yl)methyl)-9H-purin-8-yl)phenyl)-N-cyclopropylacetamide], for which the IC50 is 398 nM in the assay with DLD-1 BRCA2−/− cells (setting [5]) and greater than 10000 nM in the assay on DLD-1 cells (setting [6]).

As for `CC(C)Oc1ncnc2c1nc(-c1ccc(OCCN3CCN(C)CC3)cc1)n2Cc1ccccc1` [Example B1, 9-benzyl-6-isopropoxy-8-(4-(2-(4-methyl-piperazin-1-yl)ethoxy)phenyl)-9H-purine], the results for the IC50 in the assay on DLD-1 BRCA2−/− cells (setting [1]) and in the assay on DLD-1 cells (setting [2]) were 1000 nM and 7940 nM, respectively.

In the case of `CC1(Oc2ncnc3c2nc(-c2ccc(OCC4(F)CNC4)cc2Cl)n3Cc2ccccc2)CC1` [Example D19, 9-benzyl-8-(2-chloro-4-((3-fluoroazetidin-3-yl)methoxy)phenyl)-6-(1-methylcyclopropoxy)-9H-purine], the IC50 is 501 nM with DLD-1 BRCA2−/− cells (setting [1]) and 5010 nM in the assay on DLD-1 cells (setting [2]).

For `Cc1ccnc(Cn2c(-c3ccc(NC(=O)N4CC[C@@H](O)C4)cc3Cl)nc3c(OC4(C)CC4)ncnc32)c1` [Example T342, (R)-N-(3-chloro-4-(6-(1-methylcyclopropoxy)-9-((4-methylpyridin-2-yl)methyl)-9H-purin-8-yl)phenyl)-3-hydroxypyrrolidine-1-carboxamide], the values for the IC50 in the assay on DLD-1 BRCA2−/− cells (setting [5]) and with DLD-1 cells (setting [6]) were greater than 3980 nM and greater than 10000 nM, respectively.

Take `CC1(Oc2ncnc3c2nc(-c2ccc(OC[C@H]4CCN4)cc2Cl)n3Cc2ccccc2)CC1` [Example D16, (R)-8-(4-(azetidin-2-ylmethoxy)-2-chlorophenyl)-9-benzyl-6-(1-methylcyclopropoxy)-9H-purine]: the figures for the IC50 in the assay with DLD-1 BRCA2−/− cells (setting [1]) and in the assay with DLD-1 cells (setting [2]) were 158 nM and 3980 nM, respectively.

As for `CC1(Oc2ncnc3c2nc(-c2ccc(OCCN4CCNCC4)cc2Cl)n3Cc2cc(C3CC3)ccn2)CC1` [Example S3, 8-(2-chloro-4-(2-(piperazin-1-yl)ethoxy)phenyl)-9-((4-cyclopropylpyridin-2-yl)methyl)-6-(1-methylcyclopropoxy)-9H-purine], the IC50 in the assay on DLD-1 BRCA2−/− cells (setting [1]) is 794 nM; in the assay with DLD-1 cells (setting [2]) it was greater than 10000 nM.

Consider `Cc1ccnc(Cn2c(-c3ccc(C(=O)NCCO)cc3Cl)nc3c(OC4(C)CC4)ncnc32)c1` [Example T119, 3-chloro-N-(2-hydroxyethyl)-4-(6-(1-methylcyclopropoxy)-9-((4-methylpyridin-2-yl)methyl)-9H-purin-8-yl)benzamide], for which the IC50 in the assay with DLD-1 BRCA2−/− cells (setting [3]) was 794 nM; in the assay on DLD-1 cells (setting [4]), greater than 10000 nM.

Take `CC1(Oc2ncnc3c2nc(-c2ccc(O[C@H]4C[C@H](C(=O)O)C4)cc2Cl)n3Cc2cccc(Cl)c2)CC1` [Example T253, (1r,3r)-3-(3-chloro-4-(9-(3-chlorobenzyl)-6-(1-methylcyclopropoxy)-9H-purin-8-yl)phenoxy)cyclobutane-1-carboxylic acid]: the “POLQ PD Prolif Lumin” value is on record as 6.5 in the assay with DLD-1 BRCA2−/− cells (DLD-1 BRCA2-/- proliferation, column head only partly shown) and less than 5.0 in the assay with DLD-1 cells (DLD-1 BRCA2 wt control proliferation, column head only partly shown).

Take `CC1(Oc2ncnc3c2nc(-c2ccc(OCCN4CCNCC4)cc2Cl)n3Cc2cc(C(F)(F)F)ccn2)CC1` [Example K8, 8-(2-chloro-4-(2-(piperazin-1-yl)ethoxy)phenyl)-6-(1-methylcyclopropoxy)-9-((4-(trifluoromethyl)pyridin-2-yl)methyl)-9H-purine]: the figures for the IC50 in the assay on DLD-1 BRCA2−/− cells (setting [1]) and in the assay with DLD-1 cells (setting [2]) were 398 nM and 7940 nM, respectively.

As for `CC1(Oc2ncnc3c2nc(-c2ccc(OCCN4CC(O)C4)cc2Cl)n3Cc2ccccc2)CC1` [Example H14, 1-(2-(4-(9-benzyl-6-(1-methylcyclopropoxy)-9H-purin-8-yl)-3-chlorophenoxy)ethyl)azetidin-3-ol], the IC50 with DLD-1 BRCA2−/− cells (setting [1]) is 126 nM; in the assay with DLD-1 cells (setting [2]), 6310 nM.

Turning to `Cc1ccnc(Cn2c(-c3ccc(N4CC[C@@H](O)C4=O)cc3Cl)nc3c(OC4(C)CC4)ncnc32)c1` [Example T181, (R)-1-(3-chloro-4-(6-(1-methylcyclopropoxy)-9-((4-methylpyridin-2-yl)methyl)-9H-purin-8-yl)phenyl)-3-hydroxypyrrolidin-2-one], the IC50 was 316 nM in the assay with DLD-1 BRCA2−/− cells (setting [3]) and greater than 10000 nM in the assay on DLD-1 cells (setting [4]).

For the molecule `CNCCCOc1ccc(-c2nc3c(OC4(C)CC4)ncnc3n2Cc2ncc(C)s2)c(Cl)c1` [Example T74, 3-(3-chloro-4-(6-(1-methylcyclopropoxy)-9-((5-methylthiazol-2-yl)methyl)-9H-purin-8-yl)phenoxy)-N-methylpropan-1-amine], the IC50 with DLD-1 BRCA2−/− cells (DLD-1, DLD-1 BRCA2 −/− cells, mean, read-out: POLQ PD Prolif Lumin BRCA2 −/− mean pIC50 (converted)) is 501 nM; in the assay on DLD-1 cells (DLD-1, DLD1 BRCA2 wt cells, mean, read-out: POLQ PD Prolif Lumin DLD1 mean PIC50 (converted)), greater than 10000 nM.

For `Cc1ccnc(Cn2c(-c3ccc(NC(=O)NCCO)cc3Cl)nc3c(OC4(C)CC4)ncnc32)c1` [Example T132, 1-(3-chloro-4-(6-(1-methylcyclopropoxy)-9-((4-methylpyridin-2-yl)methyl)-9H-purin-8-yl)phenyl)-3-(2-hydroxyethyl)urea], the IC50 in the assay on DLD-1 BRCA2−/− cells (setting [3]) was 2000 nM; with DLD-1 cells (setting [4]), greater than 10000 nM.

The record behind these values is patent US20250195530A1, “POLQ INHIBITORS” (ASTRAZENECA AB, priority 2022, published 2025).
